According to the CheMixHub viscosity set:

Assay: xn = mol fraction of the nth substance listed

ClC=C(Cl)Cl + C1COCCO1
101.33 kPa
Conditions	viscosity [mPa·s]
298.15 K, x1 = 0.1027	1.036
298.15 K, x1 = 0.2015	0.963
298.15 K, x1 = 0.3002	0.909
298.15 K, x1 = 0.409	0.854
298.15 K, x1 = 0.502	0.814
298.15 K, x1 = 0.6078	0.767
298.15 K, x1 = 0.6921	0.732
298.15 K, x1 = 0.8076	0.685
298.15 K, x1 = 0.9058	0.649
303.15 K, x2 = 0.0577	0.5863
303.15 K, x2 = 0.1189	0.6434
303.15 K, x2 = 0.289	0.7496
303.15 K, x2 = 0.3696	0.7787
303.15 K, x2 = 0.4012	0.7885
303.15 K, x2 = 0.5728	0.837
303.15 K, x2 = 0.6186	0.8515
303.15 K, x2 = 0.7841	0.9264
303.15 K, x2 = 0.892	0.9979
303.15 K, x2 = 0.9513	1.045
308.15 K, x1 = 0.1027	0.907
308.15 K, x1 = 0.2015	0.852
308.15 K, x1 = 0.3002	0.804
308.15 K, x1 = 0.409	0.757
308.15 K, x1 = 0.502	0.727
308.15 K, x1 = 0.6078	0.693
308.15 K, x1 = 0.6921	0.67
308.15 K, x1 = 0.8076	0.64
308.15 K, x1 = 0.9058	0.613
318.15 K, x1 = 0.1027	0.815
318.15 K, x1 = 0.2015	0.764
318.15 K, x1 = 0.3002	0.726
318.15 K, x1 = 0.409	0.69
318.15 K, x1 = 0.502	0.673
318.15 K, x1 = 0.6078	0.653
318.15 K, x1 = 0.6921	0.635
318.15 K, x1 = 0.8076	0.605
318.15 K, x1 = 0.9058	0.586

ClC=C(Cl)Cl + CCOCCO
viscosity [mPa·s], 101.33 kPa
Conditions	x1 = 0.1191	x1 = 0.2226	x1 = 0.3214	x1 = 0.4322	x1 = 0.5234	x1 = 0.6128	x1 = 0.7066	x1 = 0.8105	x1 = 0.9057
303.15 K	1.453	1.286	1.134	0.976	0.865	0.769	0.687	0.614	0.557
313.15 K	1.166	1.052	0.946	0.829	0.747	0.676	0.612	0.555	0.511

Cc1ccccn1 + Cc1ccccc1
viscosity [mPa·s], 101 kPa
Conditions	x2 = 0.2	x2 = 0.4	x2 = 0.6	x2 = 0.8
293.15 K	0.76	0.714	0.668	0.624
313.15 K	0.593	0.558	0.525	0.494

ClC=C(Cl)Cl + CC(=O)CC(C)C
viscosity [mPa·s], 101.33 kPa
Conditions	x1 = 0.1088	x1 = 0.1998	x1 = 0.3286	x1 = 0.4037	x1 = 0.5018	x1 = 0.5921	x1 = 0.7362	x1 = 0.7986	x1 = 0.8859
298.15 K	0.564	0.578	0.593	0.603	0.616	0.621	0.631	0.63	0.624
308.15 K	0.508	0.516	0.533	0.546	0.561	0.574	0.595	0.6	0.605
318.15 K	0.464	0.475	0.49	0.5	0.51	0.519	0.533	0.539	0.547

CCCCCCCCCCCCCCO + CC(C)[C@@H]1CC[C@@H](C)C[C@H]1O
100 kPa, x1 = 0.333
Conditions	viscosity [mPa·s]
293.15 K	44.69
298.15 K	31.86
303.15 K	23.35
308.15 K	17.54
313.15 K	13.47
318.15 K	10.53
323.15 K	8.38
